We go through eight compounds from patent publication US10745377B2, “Piperidine or piperazine linked imidazole and triazole derivatives and methods of use” (MERCK SHARP & DOHME CORP., priority 2013, dated 2020).

Type in all cases: biochemical
One assay addresses T1, CYP3A4 (Homo sapiens, UniProt P08684).
T1 construct: 0.1 mg/mL protein human liver microsomes (BD Gentest); tissue BD Gentest; host or cells: human liver microsomes
In words: Cocktail assay for CYPs in human liver microsomes: CYP3A4 (midazolam 1′-hydroxylation). Conditions: human liver microsomes 0.1 mg/mL, 2 μM midazolam, 10 min at 37° C., 6 concentrations up to 10 μM; read-out: IC50 (nM) CYP3A4. (In general: Liver microsomes are a subcellular fraction often used to study metabolism.)

A further assay concerns the target T2, CYP2C19 (Homo sapiens, UniProt P33261).
T2 construct: 0.1 mg/mL protein human liver microsomes (BD Gentest); tissue BD Gentest; host or cells: human liver microsomes
As to the kind of experiment: Cocktail assay for CYPs in human liver microsomes: CYP2C19 (mephenytoin 4′-hydroxylation). The following applies: human liver microsomes 0.1 mg/mL, 30 μM mephenytoin, 10 min at 37° C., 6 concentrations up to 10 μM; read-out: IC50 (nM) CYP2C19.

In another assay the target is T3, CYP2D6 (Homo sapiens, UniProt P10635).
T3 construct: 0.1 mg/mL protein human liver microsomes (BD Gentest); tissue BD Gentest; host or cells: human liver microsomes
T3 sequence (P10635 whole entry): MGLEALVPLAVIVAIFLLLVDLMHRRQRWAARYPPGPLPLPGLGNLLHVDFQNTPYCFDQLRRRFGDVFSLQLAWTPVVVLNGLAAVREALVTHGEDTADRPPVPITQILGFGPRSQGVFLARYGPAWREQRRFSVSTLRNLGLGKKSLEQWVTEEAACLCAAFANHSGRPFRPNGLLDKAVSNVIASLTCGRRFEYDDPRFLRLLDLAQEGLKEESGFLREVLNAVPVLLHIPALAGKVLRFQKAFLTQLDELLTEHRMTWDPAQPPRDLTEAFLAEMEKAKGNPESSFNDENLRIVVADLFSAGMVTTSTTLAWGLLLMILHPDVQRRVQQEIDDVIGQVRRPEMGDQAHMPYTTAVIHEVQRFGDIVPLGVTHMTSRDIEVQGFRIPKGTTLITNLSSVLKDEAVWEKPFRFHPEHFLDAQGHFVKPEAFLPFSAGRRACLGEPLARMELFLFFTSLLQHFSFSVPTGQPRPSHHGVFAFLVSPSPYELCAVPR
As to the kind of experiment: Cocktail assay for CYPs in human liver microsomes: CYP2D6 (dextromethorphan O-demethylation). Conditions: human liver microsomes 0.1 mg/mL, 5 μM dextromethorphan, 10 min at 37° C., 6 concentrations up to 10 μM; read-out: IC50 (nM) CYP2D6.

The target of a further assay is T4, CYP2C9 (Homo sapiens, UniProt P11712).
T4 construct: 0.1 mg/mL protein human liver microsomes (BD Gentest); tissue BD Gentest; host or cells: human liver microsomes
T4 sequence (P11712 whole entry): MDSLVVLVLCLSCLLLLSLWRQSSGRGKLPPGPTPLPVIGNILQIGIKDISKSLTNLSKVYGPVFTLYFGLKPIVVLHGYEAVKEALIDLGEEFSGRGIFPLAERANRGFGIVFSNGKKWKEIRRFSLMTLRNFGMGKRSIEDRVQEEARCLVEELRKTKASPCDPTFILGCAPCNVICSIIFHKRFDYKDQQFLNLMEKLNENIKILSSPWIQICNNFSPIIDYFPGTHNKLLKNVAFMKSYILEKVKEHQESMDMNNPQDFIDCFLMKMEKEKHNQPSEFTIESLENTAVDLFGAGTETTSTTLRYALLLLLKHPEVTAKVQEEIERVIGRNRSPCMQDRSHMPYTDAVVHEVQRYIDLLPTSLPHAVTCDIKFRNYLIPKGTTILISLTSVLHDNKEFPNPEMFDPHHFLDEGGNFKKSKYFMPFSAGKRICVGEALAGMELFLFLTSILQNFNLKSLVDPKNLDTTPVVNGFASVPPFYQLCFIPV
In words: Cocktail assay for CYPs in human liver microsomes: CYP2C9 (diclofenac 4′-hydroxylation). Conditions: human liver microsomes 0.1 mg/mL, 5 μM diclofenac, 10 min at 37° C., 6 concentrations up to 10 μM; read-out: IC50 (nM) CYP2C9.

For the next assay, the target named is T5, CYP1A2 (Homo sapiens, UniProt P05177).
T5 construct: 0.1 mg/mL protein human liver microsomes (BD Gentest); tissue BD Gentest; host or cells: human liver microsomes
T5 sequence (P05177 1-516): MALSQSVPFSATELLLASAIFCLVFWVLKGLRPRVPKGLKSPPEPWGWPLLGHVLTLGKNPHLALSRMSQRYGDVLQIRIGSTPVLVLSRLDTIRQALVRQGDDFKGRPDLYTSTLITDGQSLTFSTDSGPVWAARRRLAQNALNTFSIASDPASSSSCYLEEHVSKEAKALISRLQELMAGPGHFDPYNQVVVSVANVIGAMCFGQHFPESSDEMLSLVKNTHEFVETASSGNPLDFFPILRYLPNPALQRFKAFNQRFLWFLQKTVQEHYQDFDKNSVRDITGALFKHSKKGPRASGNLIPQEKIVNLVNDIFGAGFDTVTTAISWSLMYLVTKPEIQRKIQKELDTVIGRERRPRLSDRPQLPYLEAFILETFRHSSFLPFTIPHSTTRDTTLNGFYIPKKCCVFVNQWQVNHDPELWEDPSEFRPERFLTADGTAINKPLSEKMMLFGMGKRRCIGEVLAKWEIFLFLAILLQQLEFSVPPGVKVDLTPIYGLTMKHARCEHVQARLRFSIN
As to the kind of experiment: Cocktail assay for CYPs in human liver microsomes: CYP1A2 (phenacetin O-deethylation). The following applies: human liver microsomes 0.1 mg/mL, 10 μM phenacetin, 10 min at 37° C., 6 concentrations up to 10 μM; read-out: IC50 (nM) CYP1A2.

T2 sequence (P33261 whole entry): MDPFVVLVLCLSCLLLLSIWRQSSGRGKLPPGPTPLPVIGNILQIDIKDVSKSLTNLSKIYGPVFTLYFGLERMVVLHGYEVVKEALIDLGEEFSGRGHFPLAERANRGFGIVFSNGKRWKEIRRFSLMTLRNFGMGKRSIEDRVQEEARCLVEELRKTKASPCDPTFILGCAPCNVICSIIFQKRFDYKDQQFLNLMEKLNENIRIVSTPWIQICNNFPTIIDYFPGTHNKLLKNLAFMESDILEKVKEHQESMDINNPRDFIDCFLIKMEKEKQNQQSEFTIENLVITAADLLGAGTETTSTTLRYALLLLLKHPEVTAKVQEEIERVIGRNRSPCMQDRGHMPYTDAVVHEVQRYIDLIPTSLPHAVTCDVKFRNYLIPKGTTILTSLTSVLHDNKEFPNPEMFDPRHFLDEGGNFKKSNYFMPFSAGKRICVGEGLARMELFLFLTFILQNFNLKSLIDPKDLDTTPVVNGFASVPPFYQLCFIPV
T1 sequence (P08684 whole entry): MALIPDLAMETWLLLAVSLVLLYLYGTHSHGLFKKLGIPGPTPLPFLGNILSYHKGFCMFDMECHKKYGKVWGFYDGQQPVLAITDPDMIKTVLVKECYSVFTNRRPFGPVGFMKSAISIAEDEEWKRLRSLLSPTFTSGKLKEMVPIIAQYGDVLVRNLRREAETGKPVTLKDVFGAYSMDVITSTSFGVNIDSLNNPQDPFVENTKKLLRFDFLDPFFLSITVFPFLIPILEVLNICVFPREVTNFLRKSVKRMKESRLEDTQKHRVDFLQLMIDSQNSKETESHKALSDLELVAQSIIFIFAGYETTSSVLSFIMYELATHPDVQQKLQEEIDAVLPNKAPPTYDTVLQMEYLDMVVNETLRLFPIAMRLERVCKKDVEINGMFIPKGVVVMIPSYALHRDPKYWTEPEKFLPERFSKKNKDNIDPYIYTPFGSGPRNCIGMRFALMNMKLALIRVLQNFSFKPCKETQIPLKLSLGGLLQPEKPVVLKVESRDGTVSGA
Experimental for CYP3A4: Determination of IC50 in a Cocktail Assay for CYPs 1A2, 2C9, 2C19, 2D6 and 3A4
This assay was performed in a standard 96-well plate design. […] The incubation substrate mix contains 10 μM phenacetin (1A2), 5 μM diclofenac (2C9), 30 μM mephenytoin (2C19), 5 μM dextromethorphan (2D6) and 2 μM midazolam (3A4), 0.1 mg/mL protein human liver microsomes (BD Gentest), 1 mM NAPDH, 3.3 mM MgCl2 and 100 mM potassium phosphate buffer (pH 7.4). The production of the metabolite of each probe substrate was determined after incubation for 10 min at 37° C. Quantitation of the metabolite peak area ratio against an internal standard (tolbutamide) was determined by LC/MS/MS analysis following acetonitrile treatment of the incubations.
Samples were analyzed in the MRM mode with a SCIEX API-4000 mass spectrometer (Applied Biosystems, Foster City, Calif.), with a Shimadzu LC-20 AD pump (Shimadzu corporation, Kyoto, JP) and a CTC PAL autosampler (Agilent Technologies, Switzerland). A Phenomenex, Luna, 5 μm, 100 A, 2.00×30 mm HPLC column was used for the separation. The mobile phases were: (A) 0.1% formic acid in water and (B) 0.1% formic acid in acetonitrile. The binary gradient was as follows.
The mass spectrum parameters were as follows:
The LC/MS/MS parameters for the analytes were as follows.
The peak area ratio of the analyte to the internal standard was used to quantify the metabolite. The values of peak area ratios in the presence of test compound were compared to those of maximum or minimum controls and were expressed as % inhibition by interpolating between the maximum and minimum peak area ratios. Incubations with no inhibitor were defined as the maxima.
The following equation was used to calculate the % inhibition: [1−[(X−Low control)/(High control−Low control)]]*100
For the IC50 calculation, SigmaPlot was used to plot the mean % inhibition versus the test compound concentrations and for non-linear regression analysis of the data. Depending on the range of data points defining the inhibition curve, the data may have been fit to the 4-parameter logistic equation.

Regarding `COc1ccc(CNc2ncc(CN3CCN(Cc4cncn4[C@H](C)c4ccc(F)cc4)CC3=O)s2)c(OC)c1` [Compound 65, (R)-1-((2-((2,4-dimethoxybenzyl)amino)thiazol-5-yl)methyl)-4-((1-(1-(4-fluorophenyl)ethyl)-1H-imidazol-5-yl)methyl)piperazin-2-one], the IC50 on CYP3A4 is 10 nM; on CYP2C19, 1340 nM; at CYP2D6, 3360 nM; at CYP2C9, 8780 nM; on CYP1A2 it was above 10000 nM.
The corresponding values for `C[C@H](c1ccc(F)cc1)n1cncc1CN1CCN(Cc2cnc(N(C)C)s2)C(=O)C1` [Compound 66, (R)-1-((2-(dimethylamino)thiazol-5-yl)methyl)-4-((1-(1-(4-fluorophenyl)ethyl)-1H-imidazol-5-yl)methyl) piperazin-2-one] are 43 nM, above 10000 nM, above 10000 nM, above 10000 nM and above 10000 nM.
Consider `CNc1ncc(CN2CCN(Cc3cncn3[C@H](C)c3ccc(F)cc3)CC2=O)s1` [Compound 67, (R)-4-((1-(1-(4-fluorophenyl)ethyl)-1H-imidazol-5-yl)methyl)-1-((2-(methylamino)thiazol-5-yl)methyl) piperazin-2-one], for which the IC50 at CYP3A4 is 75 nM; at CYP2C19, above 10000 nM; on CYP2D6 it was above 10000 nM; on CYP2C9, above 10000 nM; at CYP1A2, above 10000 nM.
On to `C[C@H](c1ccc(F)cc1)n1cncc1CN1CCN(Cc2cnc(N3CCOCC3)s2)C(=O)C1` [Compound 68, (R)-4-((1-(1-(4-fluorophenyl)ethyl)-1H-imidazol-5-yl)methyl)-1-((2-morpholinothiazol-5-yl)methyl)piperazin-2-one], for which the IC50 was 80 nM at CYP3A4; above 10000 nM at CYP2C19; above 10000 nM on CYP2D6; above 10000 nM on CYP2C9; above 10000 nM on CYP1A2.
Turning to `C[C@H](c1ccc(F)cc1)n1cncc1CN1CCN(Cc2cnc(N3CCN(C)CC3)s2)C(=O)C1` [Compound 69, (R)-4-((1-(1-(4-fluorophenyl)ethyl)-1H-imidazol-5-yl)methyl)-1-((2-(4-methylpiperazin-1-yl)thiazol-5-yl)methyl) piperazin-2-one], the IC50 is 56 nM on CYP3A4; above 10000 nM at CYP2C19; above 10000 nM at CYP2D6; above 10000 nM at CYP2C9; above 10000 nM at CYP1A2.
As to `CCOC(=O)CN1CCN(Cc2cncn2C(C)c2ccccc2-c2ccc(F)cc2)CC1` (stereo not shown) [Compound 70, ethyl 2-(4-((1-(1-(4′-fluoro-[1,1′-biphenyl]-2-yl)ethyl)-1H-imidazol-5-yl)methyl)piperazin-1-yl)acetate], the IC50 on CYP3A4 was 15 nM; on CYP2C19, 5950 nM; at CYP2D6, 7680 nM; at CYP2C9 it was above 10000 nM; at CYP1A2, above 10000 nM.
`CC(c1ccccc1-c1ccc(F)cc1)n1cncc1CN1CCN(CCO)CC1` (stereo not shown) [Compound 71, 2-(4-((1-(1-(4′-fluoro-[1,1′-biphenyl]-2-yl)ethyl)-1H-imidazol-5-yl)methyl)piperazin-1-yl) ethanol]: the IC50 is 37 nM on CYP3A4; above 10000 nM at CYP2C19; above 10000 nM on CYP2D6; above 10000 nM at CYP2C9; above 10000 nM on CYP1A2.
With `COCCN1CCN(Cc2cncn2C(C)c2ccccc2-c2ccc(F)cc2)CC1` (stereo not shown) [Compound 72, 1-((1-(1-(4′-fluoro-[1,1′-biphenyl]-2-yl)ethyl)-1H-imidazol-5-yl)methyl)-4-(2-methoxyethyl) piperazine], the IC50 at CYP3A4 was 14 nM; on CYP2C19, above 10000 nM; at CYP2D6, 1170 nM; on CYP2C9, above 10000 nM; at CYP1A2, above 10000 nM.

What is called IC50 is the concentration that gives 50% inhibition.
